Where a SMILES comes first, the peptide text is derived from it. Where no end group is shown, it is not given here. [ ]: non-standard residue; d: D form. The star is where a group is joined. Dolaproine = CO[C@@H]([C@@H]1CCCN1)[C@@H](C)C(=O)O; Dil = CC[C@H](C)[C@H](NC)[C@@H](CC(=O)O)OC; Palmitoyl = CCCCCCCCCCCCCCCC(=O)*; X1 = C[C@@H](N*)[C@@H](O)c1ccccc1; NMeV = CN[C@H](C(=O)O)C(C)C
Key:
[1] = TEM imaging of PA nanostructures; assay type: physicochemical; settings: ICG conjugated PA, 200 µM in ultrapure water, negative stain
Experimental: For TEM imaging, PAs conjugated with ICG, Cy5 or MMAE were dissolved in ultrapure water at a concentration of 200 µM. Carbonfilm 200 copper mesh TEM grids were glow‐discharged first. Then, PA solutions (15 µL) were placed on the grids, incubated for 10 min before blotting, and air‐dried. 15 µL of ultrapure water was applied to wash the grid for 3 min. After incubation, the water was removed by blotting from the edge of the grid. For negative staining of the samples, a 0.4% uranyl acetate solution was prepared in ultrapure water and filtered using a 0.1 µm syringe filter. 15 µL of filtered uranyl acetate solution was applied to the grid and incubated for 5 min. Finally, TEM grids were blotted to remove excess stain and dried at room temperature. TEM imaging was performed using a Tecnai or Talos microscope (FEI).

[2] = Fluorescence polarization of PA nanostructures; assay type: physicochemical; settings: 10 mol% ICG conjugated PA (20 µM) with unconjugated PA, 200 µM total, PBS; mean ± SEM, 3 wells
Experimental: ICG (10 mol%) containing PA micelles were prepared by mixing ICG‐conjugated PAs with unconjugated or MMAE‐conjugated PAs to achieve a final concentration of 20 µM ICG‐conjugated PAs and 200 µM of total PAs. Aliquots of 100 µL were added to a 96‐well plate (3 wells for each PA). Fluorescence polarization measurements were performed using a microplate reader (TECAN Spark 20 M). The corrected parallel intensity (I par) and perpendicular intensity (Iper) were used to calculate the fluorescence anisotropy (r) using the following equation: r = […].

[3] = test system: 4T1 mouse breast cancer cells; assay: Cellular uptake of Cy5 labeled PAs; assay type: cell-based
Experimental: To compare the uptake of SA‐E and SA‐K, 1 × 10^5 4T1 cells were grown to near confluency (1–2 days) in 96 well plates with black walls and flat glass bottom. 100% Cy5 conjugated PAs (20 or 10 µM) or 10% Cy5 conjugated PA micelles (10 µM Cy5‐PAs mixed with 90 µM maleimide blocked labeled PAs) were preincubated in 10% FBS containing RPMI for 30 min at 37 °C, wells were aspirated, and 100 µL of media containing PAs were added. The plate was incubated for 30 min for the experiments with 100% Cy5 conjugated PAs. Media were aspirated, wells were washed 3x with 150 µL sterile PBS, and then 100 µL RPMI containing 10% FBS was added to each well. The plate was incubated for 1 h at 37 °C. For 10% and 100% Cy5 micelle uptake comparison, plate was incubated for 2 h at 37 °C with PAs. Then, media containing PAs were aspirated and washed with PBS, as above. Cell nuclei were stained with Hoechst (1:5000 dilution in PBS) for 5 min and then removed. 100 µL of phenol red free RPMI containing 10% FBS was added to each well. […] The microscope incubator was preheated for 30 min to reach 35 °C prior to imaging.
To study the uptake of SA‐E or SA‐K micelles (10% or 100% Cy5 micelles) or No‐SA over time, 4T1 cells were grown to near confluency in a 96 well plate as described above. Cy5 conjugated 100% Cy5 conjugated PAs (20 µM), 10% Cy5 conjugated PAs (10 µM Cy5), or No‐SA (20 µM) or were preincubated in 10% FBS containing RPMI for 30 min at 37 °C. Cell nuclei were stained with Hoechst stain as above. Cell membranes were stained (CellBrite 488, 1:1000 in 10% FBS containing RPMI) for 30 min at 37 °C. Wells were aspirated, and 100 µL of PAs were added to the wells for ≈1 min. Wells were washed with sterile PBS (3x, 150 µL), and Confocal images were taken at different time points (up to 2 h) after PA or No‐SA addition as described above using a 60x objective.

[4] = PA fluorescence in liver homogenates; assay type: in vitro ADME; settings: ICG conjugated, 0.1 to 10 µM spiked into mouse liver homogenate, IVIS
Experimental: Liver samples (6.2 g total weight) collected from healthy BALB/cJ mice were placed in a gentleMACS M Tube containing 2 mL of PBS. The M Tube was fitted with a 600 µm mesh strainer, and homogenization was performed using a gentleMACS Dissociator by running a one‐minute program at 1260 rotations per round (rpr) for five cycles. ICG conjugated SA‐E and SA‐K were then spiked into the liver homogenates in a 96‐well plate at final concentrations of 0, 0.1, 0.5, 2.0, 5.0, and 10 µM. Fluorescence signals from the homogenates were measured using an IVIS (PerkinElmer).

[5] = test system: 4T1 tumor; assay: Tumor accumulation, live IVIS imaging; assay type: in vivo, mouse; settings: 50 nmol IV
Experimental: For tumor accumulation studies in subcutaneous (HCT‐116, A375, TRAMP‐C2, MC38, LLC1, RG2, PDX cell lines, wild type or SR‐B1 ‐/‐ TRAMP‐C2, and wild type or LDL‐R ‐/‐ HeLa), intradermal (A375), or fat pad (4T1 and MCF‐7) tumors, cells were implanted as described above. When the tumors reached a size around ≈0.3–1 cm, mice were injected intravenously with 100 µL of ICG conjugated PAs (in PBS, 0.5 mM) or free ICG (in PBS, 0.5 mM). After probe injections, mice were imaged using the IVIS Spectrum (PerkinElmer) with excitation and emission wavelengths of 745 and 820 nm, respectively, at the specified time points. Living Image (PerkinElmer) software was used for all analyses. For MMTV mice experiments, mice were injected intravenously weekly with SA‐E (100 µL PBS, 0.5 mM) between 71 and 85 days of age and imaged 2 days later in the IVIS. […] SA‐E was injected intravenously (100 µL PBS, 0.5 mM), 2 days later the intestinal tissue was harvested, washed, and analyzed in the IVIS for ICG.

[6] = test system: LPs (HDL, LDL, VLDL) and albumin in pooled human plasma; set-up: AUC of all FPLC peaks, lower than SA‐E: unit not given beside the values
[7] = Blood circulation in mice; assay type: in vivo, mouse
Experimental: For blood circulation experiments, Balb/c mice were injected with 100 µL of ICG conjugated PAs or No‐SA, or free ICG (0.5 mM). Then, blood was drawn via the saphenous vein or retro‐orbitally at different time points (immediately after injection to 1 day). […] Blood from wild type mice was collected to prepare calibration curves for each probe. To each 18 µL aliquot of blood, 2 µL of probe stock solution (0.5 mM) was added and incubated at 37 °C for 1 h. The spiked samples were then serially diluted in blood between 50 and 0.1 µM. For fluorescence measurement, 2 µL of each diluted sample was further diluted into 98 µL of PBS, and ICG fluorescence was measured using a TECAN plate reader.

[8] = test system: 4T1 tumor; assay: Antitumor effect, 4T1 orthotopic mouse model
Experimental: All experiments were approved by the Oregon Health and Science University (OHSU) Institutional Animal Care and Use Committee (IACUC) (TR01_IP00000674) and conformed to the guidelines set by the United States Animal Welfare Act and the National Institutes of Health. Mice were aged between 3 and 8 months and 20–30 g in weight and were housed in specific pathogen free cages. Human, mouse, or rat cells were injected into nude (The Jackson Laboratory, 002019), NSG mice (The Jackson Laboratory, 005557), Balb/c mice (The Jackson Laboratory, 000651), or C57Bl/6J mice (The Jackson Laboratory, 000664), as specified below. Cells were injected in 100 µL sterile DMEM at a concentration of 0.5–1×10^7 cells mL^−1, unless otherwise specified. For tumor accumulation and biodistribution studies, A375 cells were injected intradermally into the left ears of NSG mice (The Jackson Laboratory, 005557). MCF7 cells were injected into the mammary fat pad of NSG mice. HCT‐116, RG2, and HeLa (wild type or LDL‐R knockout) cells were subcutaneously injected into the left or both flanks of NSG mice. 4T1 cells were injected into the mammary fat pad of Balb/c mice. LLC1, MC38, and TRAMP‐C2 (wild type or SR‐B1 knockout) were injected into C57Bl/6J mice. Patient‐derived xenografts were generated by injecting the patient‐derived cancer cells subcutaneously into the left flank of NSG mice. ApoA1 and LDL‐R knockout mice were purchased from the Jackson Laboratory (002055 and 002207, respectively). MC38 cells were subcutaneously injected into both flanks of these mice. Apc^min and MMTV‐PyMT mice were purchased from the Jackson Laboratory (002020 and 002374). For antitumor activity studies, 4T1 cells were injected into the mammary fat pad of Balb/c mice. HCT‐116 and RG2 cells were subcutaneously injected into the left flanks of nude mice. For antitumor activity studies, HCT‐116 cells were injected in a 1:1 mixture of DMEM and Matrigel (Life Science 354263).
Mice were injected with 4T1, RG2, or HCT‐116 cells as described above. Mice were then treated intravenously with the free MMAE (0.1 or 0.3 mg kg^−1), SA‐E‐MMAE (0.3, 0.6, 0.8, or 1 mg kg^−1) or PBS (10 mM, pH 7.4). 5 doses were given every 2–3 days over 11 days. […] Tumor size and mouse weight were monitored 2–3 times per week until a humane endpoint (tumor size ≈2 cm or >20% body weight loss) or the study endpoint (18, 25, or 120 days for 4T1, RG2, and HCT‐116 studies, respectively). Tumor size was measured in two directions with a caliper rounded to the nearest tenth of a mm. Volume was calculated as a basic sphere of 4/3πr^3.

**Q.** What does the source list for `CCCCCCCCCCCCCCCC(=O)NCC(=O)NCC(=O)NCC(=O)N[C@@H](Cc1c[nH]cn1)C(=O)N[C@@H](C)C(=O)N[C@@H](C)C(=O)N[C@@H](CC(N)=O)C(=O)NCC(=O)N[C@@H](CCCCN)C(=O)N[C@@H](CCCCN)C(=O)N[C@@H](CS)C(=O)N[C@@H](CCCCN)C(=O)O` [SA‐K] (Palmitoyl-GGGHAANGKKCK-OH)?
**A.** diameter of rod‐shaped micelles (TEM) [1]: ≈ 10 nm; length of rod‐shaped micelles (TEM) [1]: several hundred; fluorescence anisotropy of ICG in micelles [2]: 0.299 ± 0.008; uptake relative to SA‐E ([3]; Cy5 conjugated PAs, 10% FBS RPMI, 30 min incubation then 1 h, confocal): approximately three‐fold; fluorescence in liver homogenates, SA‐E versus SA‐K (disassembly) [4]: almost identical fluorescence intensity; maximum TBR, lower than that of SA‐E ([5]; 4T1 tumor‐bearing mice): approximately two‐fold; maximum tumor signal, lower than maximum of SA‐E ([5]; 4T1 tumor‐bearing mice): ≈ 6 fold; total tumor accumulation (AUC of tumor signal), lower than SA‐E ([5]; 4T1 tumor‐bearing mice): ≈ 2.7 fold; time of maximum tumor fluorescence ([5]; 4T1 tumor‐bearing mice, ICG conjugated): 4 days; AUC of all FPLC peaks, lower than SA‐E [6]: ≈ 4.5

**Q.** With `CC1(C)C(/C=C/C=C/C=C/C=C2\N(CCCCS(=O)(=O)O)c3ccc4ccccc4c3C2(C)C)=[N+](CCCCS(=O)(=O)[O-])c2ccc3ccccc3c21` [free ICG, indocyanine green] as the compound, how does the “injected dose still in circulation” value ([7]; wild type (Balb/c) mice, ICG conjugated or free ICG 50 nmol IV, 6 h post injection, blood fluorescence with calibration curve) read?
**A.** not detectable

**Q.** And the “blood concentration, share of injected dose” value ([7]; wild type mice, 50 nmol IV, in 30 min)?
**A.** below 1%

**Q.** What about the TBR ([5]; all time points) of the same compound?
**A.** around 1

**Q.** Which tolerability ([8]; 0.1 mg kg^−1 IV, 5 doses, n = 3) does the source give for `CC[C@H](C)[C@@H]([C@@H](CC(=O)N1CCC[C@H]1[C@H](OC)[C@@H](C)C(=O)N[C@H](C)[C@@H](O)c1ccccc1)OC)N(C)C(=O)[C@@H](NC(=O)[C@@H](NC)C(C)C)C(C)C` [free MMAE, Monomethyl auristatin E] (H-[NMeV]V[Dil][Dolaproine]-X1) here?
**A.** tolerated

**Q.** What about the tolerability ([8]; 0.3 mg kg^−1 IV, stopped after the third injection, n = 5) of the same compound?
**A.** high toxicity with rapid weight loss

**Q.** What about the “effect on tumor growth” value ([8]; 0.1 or 0.3 mg kg^−1 IV) of the same compound?
**A.** slight reduction in tumor growth

**Q.** For GGGHAANGEECE [No‐SA], which “membrane binding and internalization” value ([3]; Cy5‐conjugated, 20 µM, ≈1 min exposure, imaging up to 2 h) is on record?
**A.** no significant membrane binding or internalization

**Q.** And the “TBR compared to SA‐E” value ([5]; 4T1 tumor‐bearing mice)?
**A.** significantly lower TBR

**Q.** And the “clearance from the tumor” value ([5]; ICG conjugated, 4T1)?
**A.** mostly cleared in 2 days

Source: publication PMC12801355, “Peptide Amphiphiles Hitchhike on Endogenous Biomolecules for Enhanced Cancer Imaging and Therapy” (Advanced Materials (Deerfield Beach, Fla.), 2025)
